Measurements published in US4231928A, “Antibacterial agents” (priority 1979, dated 1980).
Like-named read-outs stand apart in the source and are kept apart here.

Experiments:
Type in all cases: cell-based
[1] = system: S. aureus; assay: Serial twofold agar dilution (Mueller-Hinton agar), S. aureus; settings: Staphylococcus aureus
Method: (§1) The Minimum Inhibitory Concentrations (MIC) for sodium 6-[D-(-)-α-phenyl-α-(7-hydroxy-4-oxo-4H-pyrimido[1,2-b]pyridazin-3-ylcarboxamido)acetamido]penicillanate (BB-P598) and sulbenicillin were determined by the serial twofold agar dilution method using Steers' apparatus on Mueller-Hinton agar plates against 31 test organisms for the primary screening (Table 1) and also against 61 strains of Pseudomonas aeruginosa for the secondary evaluation (Table 2).
(§2) Minimum Inhibitory Concentrations (MIC) for sodium 6-[D-(-)-α-phenyl-α-(7-hydroxy-4-oxo-4H-pyrimido[1,2-b]pyridazin-3-ylcarboxamido)acetamido]pencillanate (BB-P598), sodium 6-[D-(-)-α-(4-hydroxyphenyl)-α-(7-hydroxy-4-oxo-4H-pyrimido[1,2-b]pyridazin-3-ylcarboxamido)acetamido]-penicillanate (BB-P642) and carbenicillin were determined by the serial twofold agar dilution method using Steers' apparatus on Mueller-Hinton agar plates against 31 tests organisms (Table 8) and also against 61 strains of Pseudomonas aeruginosa (Table 9). In terms of mean % relative activity compared with carbenicillin, compounds BB-B598 and BB-P642 were 856% and 1319% as active as carbenicillin against the 61 Pseudomonas strains of Table 9.

[2] = system: E. coli; assay: Serial twofold agar dilution (Mueller-Hinton agar), E. coli; settings: Escherichia coli
Method: as §1, §2

[3] = system: K. pneumoniae; assay: Serial twofold agar dilution (Mueller-Hinton agar), K. pneumoniae; settings: Klebsiella pneumoniae, K. pneumoniae A9977, Table 1, read-out: MIC
Method: as §1, §2

[4] = system: Klebsiella sp.; assay: Serial twofold agar dilution (Mueller-Hinton agar), Klebsiella sp.
Method: as §1, §2

[5] = system: E. cloacae; assay: Serial twofold agar dilution (Mueller-Hinton agar), E. cloacae; settings: Enterobacter cloacae
Method: as §1, §2

[6] = system: P. mirabilis; assay: Serial twofold agar dilution (Mueller-Hinton agar), P. mirabilis; settings: Proteus mirabilis, P. mirabilis A9900; Mueller-Hinton agar; Table 1; read-out: MIC
Method: as §1, §2

[7] = system: P. vulgaris; assay: Serial twofold agar dilution (Mueller-Hinton agar), P. vulgaris; settings: Proteus vulgaris, P. vulgaris A9539, Table 1, read-out: MIC
Method: as §1, §2

[8] = system: P. morganii; assay: Serial twofold agar dilution (Mueller-Hinton agar), P. morganii; settings: Morganella morganii, P. morganii A9553, Table 1, read-out: MIC
Method: as §1, §2

[9] = system: S. enteritidis; assay: Serial twofold agar dilution (Mueller-Hinton agar), S. enteritidis; settings: Salmonella enterica, S. enteritidis A9531, Table 1, read-out: MIC
Method: as §1, §2

[10] = system: S. marcescens; assay: Serial twofold agar dilution (Mueller-Hinton agar), S. marcescens; settings: Serratia marcescens, S. marcescens A20019, Table 1
Method: as §1, §2

[11] = system: Pseudomonas aeruginosa; assay: Serial twofold agar dilution (Mueller-Hinton agar), P. aeruginosa; settings: Pseudomonas aeruginosa
Method: as §1, §2

[12] = system: Pseudomonas sp.; assay: Serial twofold agar dilution (Mueller-Hinton agar), Pseudomonas sp.; settings: Pseudomonas sp. A20358, Table 1, read-out: MIC
Method: as §1, §2

Measured: MIC

CC1(C)S[C@@H]2[C@H](NC(=O)C(c3ccccc3)S(=O)(=O)O)C(=O)N2[C@H]1C(=O)O (stereo partly shown) [Sulbenicillin, reference compound]
3.1 µg/mL: [2]; E. coli Juhl A15119, Table 1, read-out: MIC | [2]; E. coli Juhl A20664, Table 1, read-out: MIC | [3] | [12]
25 µg/mL: [11]; P. aeruginosa A9843, Mueller-Hinton agar, Table 1, read-out: MIC | [11]; Pa-4 H9 D113 A21295, Mueller-Hinton agar, Table 2, read-out: MIC | [11]; Pa-29 D122, Mueller-Hinton agar, Table 2, read-out: MIC | [11]; Pa-70 K-Ps102 (CR-102), Mueller-Hinton agar, Table 2, read-out: MIC
31.4 µg/mL: [11]; 61 strains of P. aeruginosa, Table 2, read-out: Geometric mean of MIC
1.6 µg/mL: [1]; S. aureus Smith A9537, Table 1, read-out: MIC | [7] | [9] | [11]; Pa-36, Mueller-Hinton agar, Table 2, read-out: MIC
0.8 µg/mL: [2]; E. coli Juhl A9844, Table 1, read-out: MIC | [2]; E. coli NIHJ, Table 1, read-out: MIC | [6]
> 100 µg/mL: [2]; E. coli Juhl A20366, Table 1, read-out: MIC | [2]; E. coli Juhl A20732, Table 1, read-out: MIC | [2]; E. coli Juhl A20898, Table 1, read-out: MIC | [8] | [11]; Pa-6 No. 5 A15194, Mueller-Hinton agar, Table 2, read-out: MIC | [11]; Pa-10 A20479, Mueller-Hinton agar, Table 2, read-out: MIC | [11]; Pa-42 A21229, Mueller-Hinton agar, Table 2, read-out: MIC | [11]; Pa-62 A21213, Mueller-Hinton agar, Table 2, read-out: MIC
6.3 µg/mL: [2]; E. coli Juhl A20520, Table 1, read-out: MIC | [5]; E. cloacae A9656, Table 1 | [10] | [11]; Pa-3 1449VA A9930, Mueller-Hinton agar, Table 2, read-out: MIC | [11]; Pa-16 #130 A20718, Mueller-Hinton agar, Table 2, read-out: MIC
50 µg/mL: [1]; S. aureus BX-1633 A20701, Table 1, read-out: MIC | [11]; GN315, Pa-27 GN315 A21294, Mueller-Hinton agar, Table 2, read-out: MIC | [11]; GN4925, Pa-45 GN4925, Mueller-Hinton agar, Table 2, read-out: MIC | [11]; Pa-12 A20653, Mueller-Hinton agar, Table 2, read-out: MIC | [11]; Pa-23 A20741, Mueller-Hinton agar, Table 2, read-out: MIC | [11]; Pa-28 CPH10527/72, Mueller-Hinton agar, Table 2, read-out: MIC | [11]; Pa-37 A20130, Mueller-Hinton agar, Table 2, read-out: MIC | [11]; Pa-38 A20349, Mueller-Hinton agar, Table 2, read-out: MIC | [11]; Pa-43 A21233, Mueller-Hinton agar, Table 2, read-out: MIC | [11]; Pa-44 A21274, Mueller-Hinton agar, Table 2, read-out: MIC | [11]; Pa-54 A20128, Mueller-Hinton agar, Table 2, read-out: MIC | [11]; Pa-58 A20557, Mueller-Hinton agar, Table 2, read-out: MIC | [11]; Pa-59 A20574, Mueller-Hinton agar, Table 2, read-out: MIC | [11]; Pa-61 A20726, Mueller-Hinton agar, Table 2, read-out: MIC | [11]; Pa-67 A21509, Mueller-Hinton agar, Table 2, read-out: MIC | [11]; Pa-68 A21510, Mueller-Hinton agar, Table 2, read-out: MIC | [11]; Pa-69 A21587, Mueller-Hinton agar, Table 2, read-out: MIC
100 µg/mL: [5]; E. cloacae A9657, Table 1 | [11]; P. aeruginosa A20717, Mueller-Hinton agar, Table 1, read-out: MIC | [11]; Pa-15 A20717, Mueller-Hinton agar, Table 2, read-out: MIC | [11]; Pa-24 A20896, Mueller-Hinton agar, Table 2, read-out: MIC | [11]; Pa-33 A20598, Mueller-Hinton agar, Table 2, read-out: MIC | [11]; Pa-35, Mueller-Hinton agar, Table 2, read-out: MIC
12.5 µg/mL: [1]; S. aureus BX-1633 A15097, Table 1, read-out: MIC | [2]; E. coli Juhl A9435, Table 1 | [4] | [5]; E. cloacae A9659, Table 1 | [11]; P. aeruginosa A9930, Mueller-Hinton agar, Table 1, read-out: MIC | [11]; P. aeruginosa A15150, Mueller-Hinton agar, Table 1, read-out: MIC | [11]; P. aeruginosa A20229, Mueller-Hinton agar, Table 1, read-out: MIC | [11]; Pa-2 VA A9923, Mueller-Hinton agar, Table 2, read-out: MIC | [11]; Pa-17 H6 D114, Mueller-Hinton agar, Table 2, read-out: MIC | [11]; Pa-18 H8 D121, Mueller-Hinton agar, Table 2, read-out: MIC | [11]; Pa-19 A20229, Mueller-Hinton agar, Table 2, read-out: MIC | [11]; Pa-25 A20897, Mueller-Hinton agar, Table 2, read-out: MIC | [11]; Pa-26 Ps32, Mueller-Hinton agar, Table 2, read-out: MIC | [11]; Pa-31 A20594, Mueller-Hinton agar, Table 2, read-out: MIC | [11]; Pa-60 A20602, Mueller-Hinton agar, Table 2, read-out: MIC
